How the values were obtained:
Assay in all cases: relative viability (nuclei count vs DMSO), 5 days (fraction); higher = more cells survive
Salubrinal + Linsitinib = compound: O=C(/C=C/c1ccccc1)NC(NC(=S)Nc1cccc2cccnc12)C(Cl)(Cl)Cl [Salubrinal] + C[C@]1(O)C[C@@H](c2nc(-c3ccc4ccc(-c5ccccc5)nc4c3)c3c(N)nccn32)C1 [Linsitinib] (partner 1 µM)
Procedure, shortened: (§1)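 Medians of duplicate plates are given as relative viability. That measure is the nuclei count in treated wells divided by the count in vehicle wells. Counts were taken on 4× images of lung cancer cell lines in 1536-well plates, 5 days after pin-tool dosing the day after seeding with one drug alone or a fixed anchor-drug dose plus five library-drug doses (not always all listed) in √10 steps.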

Salubrinal + Alpelisib = compound: O=C(/C=C/c1ccccc1)NC(NC(=S)Nc1cccc2cccnc12)C(Cl)(Cl)Cl [Salubrinal] + Cc1nc(NC(=O)N2CCC[C@H]2C(N)=O)sc1-c1ccnc(C(C)(C)C(F)(F)F)c1 [Alpelisib] (partner 2 µM)
Procedure, shortened: as §1

Salubrinal + OSI-027 = compound: O=C(/C=C/c1ccccc1)NC(NC(=S)Nc1cccc2cccnc12)C(Cl)(Cl)Cl [Salubrinal] + COc1cccc2cc(-c3nc([C@H]4CC[C@H](C(=O)O)CC4)n4ncnc(N)c34)[nH]c12 [OSI-027] (partner 0.5 µM)
Procedure, shortened: as §1

Salubrinal + Vorinostat = compound: O=C(/C=C/c1ccccc1)NC(NC(=S)Nc1cccc2cccnc12)C(Cl)(Cl)Cl [Salubrinal] + O=C(CCCCCCC(=O)Nc1ccccc1)NO [Vorinostat] (partner 1 µM)
Procedure, shortened: as §1

EPLC-272H gave a relative viability (Salubrinal + Linsitinib; first compound 0.08 µM) of 1.19, a relative viability (Salubrinal + Linsitinib; first compound 0.253 µM) of 0.832 and a relative viability (Salubrinal + Linsitinib; first compound 0.8 µM) of 1.37. It also gave a relative viability (Salubrinal + Linsitinib; first compound 2.53 µM) of 1.27, a relative viability (Salubrinal + Linsitinib; first compound 8 µM) of 1.05 and a relative viability (Salubrinal + Alpelisib; first compound 0.08 µM) of 1.01. It also gave a relative viability (Salubrinal + Alpelisib; first compound 0.253 µM) of 0.798, a relative viability (Salubrinal + Alpelisib; first compound 0.8 µM) of 1.07 and a relative viability (Salubrinal + Alpelisib; first compound 2.53 µM) of 0.996. For the same cell line, the relative viability (Salubrinal + Alpelisib; first compound 8 µM) was 0.787, the relative viability (Salubrinal + OSI-027; first compound 0.08 µM) was 0.297 and the relative viability (Salubrinal + OSI-027; first compound 0.253 µM) was 0.286. For the same cell line, the relative viability (Salubrinal + OSI-027; first compound 0.8 µM) was 0.293, the relative viability (Salubrinal + OSI-027; first compound 2.53 µM) was 0.258 and the relative viability (Salubrinal + OSI-027; first compound 8 µM) was 0.249. It also gave a relative viability (Salubrinal + Vorinostat; first compound 0.08 µM) of 0.464, a relative viability (Salubrinal + Vorinostat; first compound 0.8 µM) of 0.539 and a relative viability (Salubrinal + Vorinostat; first compound 2.53 µM) of 0.427. It also gave a relative viability (Salubrinal + Vorinostat; first compound 8 µM) of 0.336.
Work on NCI-H1395 yielded a relative viability (Salubrinal + Linsitinib; first compound 0.08 µM) of 1.31, a relative viability (Salubrinal + Linsitinib; first compound 0.253 µM) of 1.12 and a relative viability (Salubrinal + Linsitinib; first compound 0.8 µM) of 1.09. The relative viability (Salubrinal + Linsitinib; first compound 2.53 µM) was 0.998, the relative viability (Salubrinal + Linsitinib; first compound 8 µM) was 1.15 and the relative viability (Salubrinal + Alpelisib; first compound 0.08 µM) was 1.19. For the same cell line, the relative viability (Salubrinal + Alpelisib; first compound 0.253 µM) was 1.39, the relative viability (Salubrinal + Alpelisib; first compound 0.8 µM) was 0.999 and the relative viability (Salubrinal + Alpelisib; first compound 2.53 µM) was 1.08. It also gave a relative viability (Salubrinal + Alpelisib; first compound 8 µM) of 0.911, a relative viability (Salubrinal + OSI-027; first compound 0.08 µM) of 0.705 and a relative viability (Salubrinal + OSI-027; first compound 0.253 µM) of 0.675. For the same cell line, the relative viability (Salubrinal + OSI-027; first compound 0.8 µM) was 0.682, the relative viability (Salubrinal + OSI-027; first compound 2.53 µM) was 0.605 and the relative viability (Salubrinal + OSI-027; first compound 8 µM) was 0.624. For the same cell line, the relative viability (Salubrinal + Vorinostat; first compound 0.08 µM) was 0.617, the relative viability (Salubrinal + Vorinostat; first compound 0.253 µM) was 0.768 and the relative viability (Salubrinal + Vorinostat; first compound 0.8 µM) was 1.09. The relative viability (Salubrinal + Vorinostat; first compound 2.53 µM) was 0.901 and the relative viability (Salubrinal + Vorinostat; first compound 8 µM) was 0.558.
With NCI-H2126 the relative viability (Salubrinal + Linsitinib; first compound 0.08 µM) was 0.716, the relative viability (Salubrinal + Linsitinib; first compound 0.253 µM) was 0.707 and the relative viability (Salubrinal + Linsitinib; first compound 0.8 µM) was 0.748. It also gave a relative viability (Salubrinal + Linsitinib; first compound 2.53 µM) of 0.693, a relative viability (Salubrinal + Linsitinib; first compound 8 µM) of 0.689 and a relative viability (Salubrinal + Alpelisib; first compound 0.08 µM) of 0.808. The relative viability (Salubrinal + Alpelisib; first compound 0.253 µM) was 0.767, the relative viability (Salubrinal + Alpelisib; first compound 0.8 µM) was 0.812 and the relative viability (Salubrinal + Alpelisib; first compound 2.53 µM) was 0.727. The relative viability (Salubrinal + Alpelisib; first compound 8 µM) was 0.725, the relative viability (Salubrinal + OSI-027; first compound 0.08 µM) was 0.7 and the relative viability (Salubrinal + OSI-027; first compound 0.253 µM) was 0.721. The relative viability (Salubrinal + OSI-027; first compound 0.8 µM) was 0.725, the relative viability (Salubrinal + OSI-027; first compound 2.53 µM) was 0.695 and the relative viability (Salubrinal + OSI-027; first compound 8 µM) was 0.659. It also gave a relative viability (Salubrinal + Vorinostat; first compound 0.08 µM) of 0.87, a relative viability (Salubrinal + Vorinostat; first compound 0.253 µM) of 0.72 and a relative viability (Salubrinal + Vorinostat; first compound 0.8 µM) of 0.888. For the same cell line, the relative viability (Salubrinal + Vorinostat; first compound 2.53 µM) was 0.763 and the relative viability (Salubrinal + Vorinostat; first compound 8 µM) was 0.719.
Work on LXF-289 yielded a relative viability (Salubrinal + Linsitinib; first compound 0.08 µM) of 1.04, a relative viability (Salubrinal + Linsitinib; first compound 0.253 µM) of 0.861 and a relative viability (Salubrinal + Linsitinib; first compound 0.8 µM) of 1.03. For the same cell line, the relative viability (Salubrinal + Linsitinib; first compound 2.53 µM) was 0.968, the relative viability (Salubrinal + Linsitinib; first compound 8 µM) was 0.893 and the relative viability (Salubrinal + Alpelisib; first compound 0.08 µM) was 1.13. The relative viability (Salubrinal + Alpelisib; first compound 0.253 µM) was 0.956, the relative viability (Salubrinal + Alpelisib; first compound 0.8 µM) was 1.13 and the relative viability (Salubrinal + Alpelisib; first compound 2.53 µM) was 1.08. For the same cell line, the relative viability (Salubrinal + Alpelisib; first compound 8 µM) was 0.966, the relative viability (Salubrinal + OSI-027; first compound 0.08 µM) was 0.784 and the relative viability (Salubrinal + OSI-027; first compound 0.253 µM) was 0.647. It also gave a relative viability (Salubrinal + OSI-027; first compound 0.8 µM) of 0.953, a relative viability (Salubrinal + OSI-027; first compound 2.53 µM) of 0.847 and a relative viability (Salubrinal + OSI-027; first compound 8 µM) of 0.69. For the same cell line, the relative viability (Salubrinal + Vorinostat; first compound 0.08 µM) was 0.897, the relative viability (Salubrinal + Vorinostat; first compound 0.253 µM) was 0.707 and the relative viability (Salubrinal + Vorinostat; first compound 0.8 µM) was 0.908. For the same cell line, the relative viability (Salubrinal + Vorinostat; first compound 2.53 µM) was 0.873 and the relative viability (Salubrinal + Vorinostat; first compound 8 µM) was 0.76.
For NCI-H2009, the relative viability (Salubrinal + Linsitinib; first compound 0.08 µM) was 1.16, the relative viability (Salubrinal + Linsitinib; first compound 0.253 µM) was 1.17 and the relative viability (Salubrinal + Linsitinib; first compound 0.8 µM) was 1.28. The relative viability (Salubrinal + Linsitinib; first compound 2.53 µM) was 1.2, the relative viability (Salubrinal + Linsitinib; first compound 8 µM) was 1.14 and the relative viability (Salubrinal + Alpelisib; first compound 0.08 µM) was 1.16. The relative viability (Salubrinal + Alpelisib; first compound 0.253 µM) was 1.1, the relative viability (Salubrinal + Alpelisib; first compound 0.8 µM) was 1.19 and the relative viability (Salubrinal + Alpelisib; first compound 2.53 µM) was 1.16. The relative viability (Salubrinal + Alpelisib; first compound 8 µM) was 1.07, the relative viability (Salubrinal + OSI-027; first compound 0.08 µM) was 0.63 and the relative viability (Salubrinal + OSI-027; first compound 0.253 µM) was 0.613. For the same cell line, the relative viability (Salubrinal + OSI-027; first compound 0.8 µM) was 0.659, the relative viability (Salubrinal + OSI-027; first compound 2.53 µM) was 0.6 and the relative viability (Salubrinal + OSI-027; first compound 8 µM) was 0.498. The relative viability (Salubrinal + Vorinostat; first compound 0.08 µM) was 0.815, the relative viability (Salubrinal + Vorinostat; first compound 0.253 µM) was 0.785 and the relative viability (Salubrinal + Vorinostat; first compound 0.8 µM) was 0.696. The relative viability (Salubrinal + Vorinostat; first compound 2.53 µM) was 0.693 and the relative viability (Salubrinal + Vorinostat; first compound 8 µM) was 0.657.
Work on SK-MES-1 yielded a relative viability (Salubrinal + Linsitinib; first compound 0.08 µM) of 1.12, a relative viability (Salubrinal + Linsitinib; first compound 0.253 µM) of 1.04 and a relative viability (Salubrinal + Linsitinib; first compound 0.8 µM) of 1.05. For the same cell line, the relative viability (Salubrinal + Linsitinib; first compound 2.53 µM) was 1.07, the relative viability (Salubrinal + Linsitinib; first compound 8 µM) was 1.08 and the relative viability (Salubrinal + Alpelisib; first compound 0.08 µM) was 1.01. It also gave a relative viability (Salubrinal + Alpelisib; first compound 0.253 µM) of 0.888, a relative viability (Salubrinal + Alpelisib; first compound 0.8 µM) of 1.09 and a relative viability (Salubrinal + Alpelisib; first compound 2.53 µM) of 0.992. The relative viability (Salubrinal + Alpelisib; first compound 8 µM) was 0.664, the relative viability (Salubrinal + OSI-027; first compound 0.08 µM) was 0.623 and the relative viability (Salubrinal + OSI-027; first compound 0.253 µM) was 0.629. The relative viability (Salubrinal + OSI-027; first compound 0.8 µM) was 0.675, the relative viability (Salubrinal + OSI-027; first compound 2.53 µM) was 0.448 and the relative viability (Salubrinal + OSI-027; first compound 8 µM) was 0.445. For the same cell line, the relative viability (Salubrinal + Vorinostat; first compound 0.08 µM) was 1.35, the relative viability (Salubrinal + Vorinostat; first compound 0.253 µM) was 1 and the relative viability (Salubrinal + Vorinostat; first compound 0.8 µM) was 1.28. For the same cell line, the relative viability (Salubrinal + Vorinostat; first compound 2.53 µM) was 1.1 and the relative viability (Salubrinal + Vorinostat; first compound 8 µM) was 0.936.
NCI-H2405 showed a relative viability (Salubrinal + Linsitinib; first compound 0.08 µM) of 1.07, a relative viability (Salubrinal + Linsitinib; first compound 0.253 µM) of 1 and a relative viability (Salubrinal + Linsitinib; first compound 0.8 µM) of 0.861. It also gave a relative viability (Salubrinal + Linsitinib; first compound 2.53 µM) of 0.889, a relative viability (Salubrinal + Linsitinib; first compound 8 µM) of 0.843 and a relative viability (Salubrinal + Alpelisib; first compound 0.08 µM) of 0.8. For the same cell line, the relative viability (Salubrinal + Alpelisib; first compound 0.253 µM) was 0.845, the relative viability (Salubrinal + Alpelisib; first compound 0.8 µM) was 0.711 and the relative viability (Salubrinal + Alpelisib; first compound 2.53 µM) was 0.79. The relative viability (Salubrinal + Alpelisib; first compound 8 µM) was 0.831, the relative viability (Salubrinal + OSI-027; first compound 0.08 µM) was 0.614 and the relative viability (Salubrinal + OSI-027; first compound 0.253 µM) was 0.643. It also gave a relative viability (Salubrinal + OSI-027; first compound 0.8 µM) of 0.664, a relative viability (Salubrinal + OSI-027; first compound 2.53 µM) of 0.637 and a relative viability (Salubrinal + OSI-027; first compound 8 µM) of 0.599. For the same cell line, the relative viability (Salubrinal + Vorinostat; first compound 0.08 µM) was 0.998, the relative viability (Salubrinal + Vorinostat; first compound 0.253 µM) was 1.06 and the relative viability (Salubrinal + Vorinostat; first compound 0.8 µM) was 1.22. The relative viability (Salubrinal + Vorinostat; first compound 2.53 µM) was 1.04 and the relative viability (Salubrinal + Vorinostat; first compound 8 µM) was 0.99.
NCI-H1755 gave a relative viability (Salubrinal + Linsitinib; first compound 0.08 µM) of 1.05, a relative viability (Salubrinal + Linsitinib; first compound 0.253 µM) of 0.869 and a relative viability (Salubrinal + Linsitinib; first compound 0.8 µM) of 1.03. It also gave a relative viability (Salubrinal + Linsitinib; first compound 2.53 µM) of 1, a relative viability (Salubrinal + Linsitinib; first compound 8 µM) of 0.947 and a relative viability (Salubrinal + Alpelisib; first compound 0.08 µM) of 1.04. The relative viability (Salubrinal + Alpelisib; first compound 0.253 µM) was 0.795, the relative viability (Salubrinal + Alpelisib; first compound 0.8 µM) was 1.01 and the relative viability (Salubrinal + Alpelisib; first compound 2.53 µM) was 0.948. It also gave a relative viability (Salubrinal + Alpelisib; first compound 8 µM) of 0.893, a relative viability (Salubrinal + OSI-027; first compound 0.08 µM) of 0.748 and a relative viability (Salubrinal + OSI-027; first compound 0.253 µM) of 0.803. The relative viability (Salubrinal + OSI-027; first compound 0.8 µM) was 0.795, the relative viability (Salubrinal + OSI-027; first compound 2.53 µM) was 0.696 and the relative viability (Salubrinal + OSI-027; first compound 8 µM) was 0.633. The relative viability (Salubrinal + Vorinostat; first compound 0.08 µM) was 0.815, the relative viability (Salubrinal + Vorinostat; first compound 0.253 µM) was 0.831 and the relative viability (Salubrinal + Vorinostat; first compound 0.8 µM) was 0.973. For the same cell line, the relative viability (Salubrinal + Vorinostat; first compound 2.53 µM) was 0.911 and the relative viability (Salubrinal + Vorinostat; first compound 8 µM) was 0.745.
